# Measured values as given in article PMC5554137, “Evaluation of novel factor Xa inhibitors from Oxya chinensis sinuosa with anti-platelet aggregation activity” (Scientific Reports, 2017).
# Experiments:
# [1] = system: C57BL/6 mice; assay: Tail bleeding time; assay type: in vivo; conditions: tail-cutting assay, mean ± SD, n = 10
# Description: Figure 4 Effects of compounds 1–4 on clotting and bleeding time. (A) One hour after administration (intravenous injection) of compound 1 (white box), 2 (light gray box), 3 (dark gray box), or 4 (black box), blood was collected from the mice and platelet-poor plasma (PPP) was obtained by centrifugation at 2,000 × g for 10 min at room temperature to test ex vivo activated partial thromboplastin time (aPTT). (B) Each group received a daily intravenous injection of the indicated compound for four consecutive days. Fifteen minutes after the last administration, blood samples were collected and in vivo aPTT was measured. (C) Fifteen minutes after administration of each compound or aspirin (4.5 or 9 mg/kg for 30 min) or the vehicle, tail tips (3 mm long) were cut from each mouse, and the remaining tail was immediately immersed into saline at 37 °C. Accumulated bleeding times (including periods of re-bleeding) were recorded. D = 0.2% DMSO used as the vehicle control. Data are presented as means ± SD of three independent experiments. *p < 0.05 vs. vehicle alone, analyzed by one-way ANOVA, followed by Tukey multiple comparison testing.
# To assess bleeding risk incurred by compounds 1–4, we measured bleeding time in mice treated with each compound (up to 30 µM/mouse) by using a tail-cutting assay; the concentration used was three-fold higher than the doses used for the in vivo anti-thrombotic studies. Aspirin-treated mice (9 mg/kg) served as positive controls. […] However, the bleeding time in mice treated with compounds 1–4 was shorter than that observed in mice treated with aspirin ([…], mean ± SD, n = 10). The dose required to avoid thrombus formation and to protect against paralysis or death in mice was determined to be 5 µM per mouse (Fig. 7C).
# Tail bleeding times were measured using the method described by Dejana et al.[37]. Briefly, C57BL/6 mice were fasted overnight prior to the experiments. […] after the i.v. administration of each compound, the tails of the mice were transected […] from their tips. Bleeding time was defined as the time elapsed until bleeding stopped. Bleeding times that exceeding 15 min were recorded as 15 min.
# [2] = target: T1, FXa (Homo sapiens, UniProt P00742); assay: Chromogenic substrate assay, Ki determination, Factor Xa; assay type: biochemical
# T1 construct: purchased Haematologic Technologies (Essex Junction, VT, USA)
# Description: (§1) The inhibitor (I) constants (Ki) were determined for the inhibition of a series of human enzymes (FXa, thrombin, trypsin, plasmin, protein Ca, streptokinase, tPA, and urokinase) by each compound. Chromogenic substrate assays were performed using a Labsystems IEMS (Cergy Pontoise, France) microtiter plate reader. In each assay, the compound was tested at a minimum of seven concentrations in duplicate to obtain an inhibition curve. Assays were performed according to the following general procedure. In a 96-well microtiter plate, 25 μL of compound, inhibitor solution or buffer was added to 50 μL of substrate. A volume of 25 μL of enzyme solution was added just before the plate was placed in the microtiter plate reader for 1 h at 37 °C. The hydrolysis of the substrate yields p-nitroaniline, which was continuously monitored spectrophotometrically at 405 nm. Data were collected and the initial rate of substrate hydrolysis [Vo (mOD/minute)] was calculated. Following Michaelis-Menten kinetics, the affinity of the enzyme for the substrate, in the absence of the inhibitor (Km) and in the presence of an inhibitor (Kp), was determined to be the negative inverse x-intercept of Lineweaver–Burk plots. The dissociation constant for inhibition (Ki) was calculated using the following equation: Ki = (Km·[I])/(Kp − Km) as described by Williams and Morrison[40].
# [3] = target: Protein Ca (Homo sapiens, UniProt P04070); assay: Chromogenic substrate assay, Ki determination, Protein Ca; assay type: biochemical
# Description: as §1
# [4] = target: Plasmin (Homo sapiens, UniProt P00747); assay: Chromogenic substrate assay, Ki determination, Plasmin; assay type: biochemical
# Description: as §1
# T1 sequence (P00742 235-488 limits assumed): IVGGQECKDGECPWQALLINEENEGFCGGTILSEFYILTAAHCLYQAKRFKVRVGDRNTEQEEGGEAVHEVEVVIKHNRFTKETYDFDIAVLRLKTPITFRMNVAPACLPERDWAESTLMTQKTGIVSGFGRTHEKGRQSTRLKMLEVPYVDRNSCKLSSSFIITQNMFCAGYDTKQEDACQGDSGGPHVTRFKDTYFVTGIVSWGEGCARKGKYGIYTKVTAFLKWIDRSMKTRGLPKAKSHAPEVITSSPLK
# T1 sequence (P00742 41-179 limits assumed): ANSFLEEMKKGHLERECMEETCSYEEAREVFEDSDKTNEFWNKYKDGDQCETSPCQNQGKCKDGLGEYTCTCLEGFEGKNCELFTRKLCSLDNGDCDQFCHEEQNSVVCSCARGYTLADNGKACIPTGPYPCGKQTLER
# Chain of Protein Ca (P04070 212-461 limits assumed): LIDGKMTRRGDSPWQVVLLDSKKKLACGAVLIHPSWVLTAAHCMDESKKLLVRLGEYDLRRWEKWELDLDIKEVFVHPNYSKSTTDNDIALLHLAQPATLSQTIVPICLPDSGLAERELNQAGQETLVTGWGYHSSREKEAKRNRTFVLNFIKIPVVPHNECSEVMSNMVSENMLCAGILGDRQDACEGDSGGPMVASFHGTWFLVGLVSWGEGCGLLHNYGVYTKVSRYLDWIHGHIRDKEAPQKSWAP
# Chain of Protein Ca (P04070 43-197 limits assumed): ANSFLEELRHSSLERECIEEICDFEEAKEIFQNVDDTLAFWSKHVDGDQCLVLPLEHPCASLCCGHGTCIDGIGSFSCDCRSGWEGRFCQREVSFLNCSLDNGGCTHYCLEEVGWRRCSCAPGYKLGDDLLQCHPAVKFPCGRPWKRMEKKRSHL
# Chain of Plasmin (P00747 581-810 limits assumed): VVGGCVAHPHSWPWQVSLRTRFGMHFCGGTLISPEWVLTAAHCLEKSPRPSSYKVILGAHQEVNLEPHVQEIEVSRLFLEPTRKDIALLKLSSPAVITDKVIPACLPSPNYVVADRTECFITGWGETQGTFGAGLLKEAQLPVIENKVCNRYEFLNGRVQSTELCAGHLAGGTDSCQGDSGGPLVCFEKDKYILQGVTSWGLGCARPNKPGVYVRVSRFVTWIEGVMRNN
# Chain of Plasmin (P00747 97-580 limits assumed): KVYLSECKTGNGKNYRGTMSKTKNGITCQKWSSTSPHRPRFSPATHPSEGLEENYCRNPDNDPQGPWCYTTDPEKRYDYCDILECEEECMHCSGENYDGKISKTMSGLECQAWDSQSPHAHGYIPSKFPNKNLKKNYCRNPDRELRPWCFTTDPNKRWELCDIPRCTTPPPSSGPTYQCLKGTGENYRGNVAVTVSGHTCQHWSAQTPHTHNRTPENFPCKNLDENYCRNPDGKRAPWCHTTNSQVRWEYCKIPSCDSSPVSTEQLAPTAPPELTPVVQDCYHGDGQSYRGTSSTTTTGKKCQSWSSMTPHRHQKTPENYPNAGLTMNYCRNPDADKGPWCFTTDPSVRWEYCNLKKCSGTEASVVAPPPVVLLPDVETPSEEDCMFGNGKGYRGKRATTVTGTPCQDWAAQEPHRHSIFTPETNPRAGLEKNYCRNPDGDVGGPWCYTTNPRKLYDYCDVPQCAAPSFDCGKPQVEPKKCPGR
smiles,measurement,setting,value
"CC(=O)NCCc1ccc2c(c1)O[C@H](c1ccc(O)c(O)c1)[C@H](NC(C)=O)O2 [Compound 1, (2 R,3 R)-2-(3′,4′-dihydroxyphenyl)-3-acetylamino-7-(N-acetyl-2″-aminoethyl)-1,4-benzodioxane]",bleeding time,[1]; mice treated with 10 µM,13.5 ± 1.3 min
same,bleeding time,[1]; mice treated with 30 µM,14.3 ± 1.2 min
same,"Ratio = Ki enzyme/Ki Factor Xa, Factor Xa",[2],1
same,Ki,"[2]; substrate S-2765 (Table 3), mean ± SD (n = 5)",2.96 ± 0.25 µM
same,"Ratio = Ki enzyme/Ki Factor Xa, Protein Ca",[3],>100
same,Ki,[3]; substrate S-2366,> 300 µM
same,"Ratio = Ki enzyme/Ki Factor Xa, Plasmin",[4],>100
same,Ki,[4]; substrate S-2251,> 300 µM
